Patent US20260167656A1, “PHOSPHORAMIDATE COMPOUNDS AND USES THEREOF” (ALLORION THERAPEUTICS INC, priority 2022, published 2026)

What was measured:
[1] = tested on: non-small cell lung cancer cell line H460; test: In vitro human cancer cell line cytotoxicity (proliferation) assay in H460, CellTiter-Glo, 72 hours; format: cell-based; conditions: H460 cells, DMSO condition (no AKR1C3 inhibitor), read-out: CTG H460: Avg IC50 (nM) [Assay Condition: DMSO]
How it was run: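 IC50s in nM come from CellTiter-Glo viability read after 72 h of compound exposure. Compounds went in from 10 mM DMSO stocks onto H460 cells, which had been plated at 3×10^3 per well and grown 24 h beforehand at 37 °C, 5% CO2.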

[2] = tested on: non-small cell lung cancer cell line H460; test: H460 proliferation assay in the presence of 3 uM ASP9521 (AKR1C3 specific inhibitor); format: cell-based, human; conditions: H460 cells, CellTiter-Glo, 72 hours, in the presence of 3 uM ASP9521 added 4 hours prior to compounds; read-out: CTG H460: Avg IC50 (nM) [Assay Condition: ASP9521]
How it was run: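 AKR1C3 blocked with 3 uM ASP9521 given 4 h ahead of test compounds. H460 cells, plated 24 h earlier, were then treated for 72 h at 37 °C in 5% CO2. CellTiter-Glo luminescence gave viability.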

SMILES | IC50 ([1]; Homo sapiens, NCI-H460, 72 h) | IC50 [2] | IC50 [1]
O=C(c1cccc(Oc2c([N+](=O)[O-])ccc3c2CCC3OP(=O)(N2CC2)N2CC2)c1)N1C[C@H]2CC[C@@H](C1)O2 (some centres unmarked) [Example 249] | < 10 nM | 1340 nM | 
O=C(c1cccc(Oc2c([N+](=O)[O-])ccc3c2CCC3OP(=O)(N2CC2)N2CC2)c1)N1C[C@H]2CC[C@@H](C1)O2 (some centres unmarked) [Example 250] |  | 1220 nM | < 10 nM
CN(C)C(=O)c1cncc(Oc2c([N+](=O)[O-])ccc3c2CC[C@@H]3OP(=O)(N2CC2)N2CC2)c1 [Example 252] |  | 2640 nM | 10 to 50 nM
CN(C(=O)c1cccc(Oc2c([N+](=O)[O-])ccc3c2CC[C@@H]3OP(=O)(N2CC2)N2CC2)c1)c1cnn(C)c1 [Example 254] |  | 786 nM | < 10 nM
CN(C)C(=O)c1cc(Oc2c([N+](=O)[O-])ccc3c2CC[C@@H]3OP(=O)(N2CC2)N2CC2)ccc1F [Example 255] |  | 832 nM | < 10 nM
O=C(c1cc(Oc2c([N+](=O)[O-])ccc3c2CC[C@@H]3OP(=O)(N2CC2)N2CC2)ccc1F)N1CCC1 [Example 257] |  | 1810 nM | < 10 nM
O=C(c1cc(Oc2c([N+](=O)[O-])ccc3c2CC[C@@H]3OP(=O)(N2CC2)N2CC2)ccc1F)N1CC(F)(F)C1 [Example 258] |  | 2060 nM | < 10 nM
O=C(c1cc(Oc2c([N+](=O)[O-])ccc3c2CC[C@@H]3OP(=O)(N2CC2)N2CC2)ccc1F)N1CCCC1 [Example 259] |  | 1550 nM | < 10 nM
CNC(=O)c1cc(Oc2c([N+](=O)[O-])ccc3c2CC[C@@H]3OP(=O)(N2CC2)N2CC2)ccc1F [Example 260] |  | 734 nM | < 10 nM
O=C(NC1CC1)c1cc(Oc2c([N+](=O)[O-])ccc3c2CC[C@@H]3OP(=O)(N2CC2)N2CC2)ccc1F [Example 261] |  | 5690 nM | 10 to 50 nM
O=C(NC1CCC1)c1ccc(Oc2c([N+](=O)[O-])ccc3c2CC[C@H]3OP(=O)(N2CC2)N2CC2)cc1 [Example 262] |  | 945 nM | < 10 nM
O=C(NC1CC1)c1ccc(Oc2c([N+](=O)[O-])ccc3c2CC[C@H]3OP(=O)(N2CC2)N2CC2)cc1 [Example 263] |  | 943 nM | < 10 nM
Cc1ccnc(-c2ccc(Oc3c([N+](=O)[O-])ccc4c3CC[C@@H]4OP(=O)(N3CC3)N3CC3)cc2F)n1 [Example 267, (S)-4-(3-fluoro-4-(4-methylpyrimidin-2-yl)phenoxy)-5-nitro-2,3-dihydro-1H-inden-1-yl di(aziridin-1-yl)phosphinate] | < 10 nM | 639 nM | 
O=[N+]([O-])c1ccc2c(c1Oc1ccc(-c3ncc(F)cn3)c(F)c1)CC[C@@H]2OP(=O)(N1CC1)N1CC1 [Example 268, (S)-4-(3-fluoro-4-(5-fluoropyrimidin-2-yl)phenoxy)-5-nitro-2,3-dihydro-1H-inden-1-yl di(aziridin-1-yl)phosphinate] | < 10 nM | 1110 nM | 
O=[N+]([O-])c1ccc2c(c1Oc1ccc(-c3ncc(F)cn3)c(F)c1)CC[C@H]2OP(=O)(N1CC1)N1CC1 [Example 269, (R)-4-(3-fluoro-4-(5-fluoropyrimidin-2-yl)phenoxy)-5-nitro-2,3-dihydro-1H-inden-1-yl di(aziridin-1-yl)phosphinate] | 10 to 50 nM | 761 nM | 
O=[N+]([O-])c1ccc2c(c1Oc1ccc(-c3ccc(Cl)cc3)cc1)CC[C@H]2OP(=O)(N1CC1)N1CC1 [Example 270] |  | 5550 nM | 10 to 50 nM
Cn1cccc(-c2ccc(Oc3c([N+](=O)[O-])ccc4c3CC[C@H]4OP(=O)(N3CC3)N3CC3)cc2)c1=O [Example 271] |  | 920 nM | < 10 nM
O=[N+]([O-])c1ccc2c(c1Oc1ccc(-c3cccnc3)cc1)CC[C@H]2OP(=O)(N1CC1)N1CC1 [Example 272] |  | 3120 nM | 10 to 50 nM
Cn1cc(-c2ccc(Oc3c([N+](=O)[O-])ccc4c3CC[C@H]4OP(=O)(N3CC3)N3CC3)cc2)cn1 [Example 273] |  | 1400 nM | < 10 nM
